Measurements published in US11667602B2, “Compounds and their use” (AstraZeneca AB, priority 2020, dated 2023).
pEC50: −log10 of the molar value. Read-outs that look alike come from different tables or passages of the source.

Biological target: T1, human RXFP1 (Homo sapiens, UniProt Q9HBX9)
T1 sequence (Q9HBX9 1-757): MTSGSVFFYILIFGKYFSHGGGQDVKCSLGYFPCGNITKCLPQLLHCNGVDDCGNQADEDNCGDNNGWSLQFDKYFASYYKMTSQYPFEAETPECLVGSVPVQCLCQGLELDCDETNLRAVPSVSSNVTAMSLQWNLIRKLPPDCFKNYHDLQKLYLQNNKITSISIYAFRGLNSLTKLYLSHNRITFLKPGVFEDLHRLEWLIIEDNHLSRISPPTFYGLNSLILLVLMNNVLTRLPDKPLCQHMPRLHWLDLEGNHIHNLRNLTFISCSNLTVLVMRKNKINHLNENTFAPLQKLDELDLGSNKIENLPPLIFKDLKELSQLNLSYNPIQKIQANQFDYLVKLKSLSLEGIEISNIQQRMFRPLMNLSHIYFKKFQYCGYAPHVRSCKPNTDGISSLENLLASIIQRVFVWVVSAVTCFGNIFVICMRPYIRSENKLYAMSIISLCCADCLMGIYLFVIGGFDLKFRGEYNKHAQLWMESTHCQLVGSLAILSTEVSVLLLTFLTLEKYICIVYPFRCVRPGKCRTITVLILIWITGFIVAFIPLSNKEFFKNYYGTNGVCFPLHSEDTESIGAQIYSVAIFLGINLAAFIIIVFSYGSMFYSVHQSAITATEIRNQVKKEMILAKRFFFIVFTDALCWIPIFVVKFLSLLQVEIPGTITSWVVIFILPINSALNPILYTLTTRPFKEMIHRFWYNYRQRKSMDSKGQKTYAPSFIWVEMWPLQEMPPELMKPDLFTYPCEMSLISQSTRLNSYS
Test: RXFP1 Hu cAMP (Test A)
Type: cell-based
Set-up: expressed in transfected cells; host or cells: Jump-In T-REx CHO-K1 cells (ThermoFisher), induced with 10 ng/ml doxycycline for 24 h
Method in brief: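 Doxycycline-induced (10 ng/ml, 24 h) CHO-K1 cells stably expressing human RXFP1; cAMP read by competitive HTRF after 2 h at room temperature, with 0.5 mM IBMX final.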

[1] = RXFP1 Hu cAMP, read-out: Test A EC50

Test A Sinf (RXFP1 Hu cAMP) | pEC50 [1] | Compound | pEC50 (Test A EC50, RXFP1 Hu cAMP)
106% | 7.08 | COc1cc(F)c(-c2cnc([C@@H]3C[C@H]3C(=O)O)cn2)cc1C(=O)N[C@@H]1[C@H]2CC[C@H](C2)[C@@H]1C(=O)Nc1cccc(S(=O)(=O)C(F)(F)F)c1 (single isomer, unassigned) [Example 263, (1R*,2R*)-2-(5-(2-Fluoro-4-methoxy-5-(((1S,2R,3S,4R)-3-((3-((trifluoromethyl)sulfonyl)phenyl)carbamoyl)bicyclo[2.2.1]heptan-2-yl)carbamoyl)phenyl)pyrazin-2-yl)cyclopropane-1-carboxylic acid] | 
 | < 4.40 | COc1cc(F)c(O[C@H]2CC[C@@](C)(C(=O)O)CC2)cc1C(=O)N[C@H]1[C@@H](C(=O)Nc2cccc(S(=O)(=O)C(F)(F)F)c2)CC[C@H]1OC (racemic) [Example 397, (1R,4s)-4-(2-Fluoro-4-methoxy-5-(((1SR,2RS,5SR)-2-methoxy-5-((3-((trifluoromethyl)sulfonyl)phenyl)carbamoyl)cyclopentyl)carbamoyl)phenoxy)-1-methylcyclohexane-1-carboxylic acid] | 
84% |  | COc1cc(F)c(O[C@H]2CC[C@](C)(CC(=O)O)CC2)cc1C(=O)N[C@@H]1[C@H]2CC[C@H](C2)[C@@H]1C(=O)NCC1(C)CCC1 [Example 477, 2-((1R,4r)-4-(2-Fluoro-4-methoxy-5-(((1S,2R,3S,4R)-3-(((1-methylcyclobutyl)methyl)carbamoyl)bicyclo[2.2.1]heptan-2-yl)carbamoyl)phenoxy)-1-methylcyclohexyl)acetic acid] | 
 | < 4.40 | COc1cc(C#N)c(O[C@H]2CC[C@@](C)(C(=O)O)CC2)cc1C(=O)NC1CCC1C(=O)NCC1(C)CCC1 (single isomer, unassigned) [Example 572, (1R,4s)-4-(2-Cyano-4-methoxy-5-(((1S*,2R*)-2-(((1-methylcyclobutyl)methyl)carbamoyl)cyclobutyl)carbamoyl)phenoxy)-1-methylcyclohexane-1-carboxylic acid] | 
101% | 7.51 | COc1cc(F)c(O[C@H]2CC[C@@](C)(C(=O)O)CC2)cc1C(=O)N[C@@H]1[C@H]2OCO[C@H]2C[C@@H]1C(=O)Nc1cccc(S(=O)(=O)C(F)(F)F)c1 (racemic) [Example 395, (1R,4s)-4-(2-Fluoro-4-methoxy-5-(((3aRS,4SR,5SR,6aSR)-5-((3-((trifluoromethyl)sulfonyl)phenyl)carbamoyl)tetrahydro-4H-cyclopenta[d][1,3]dioxol-4-yl)carbamoyl)phenoxy)-1-methylcyclohexane-1-carboxylic acid] | 
107% | 6.14 | COc1cc(C#N)c(O[C@H]2CC[C@@](C)(C(=O)O)CC2)cc1C(=O)N[C@@H]1[C@H]2CC[C@H](C2)[C@@H]1C(=O)NCc1ccc(F)c(F)c1 [Example 123] | 
106% | 6.40 | COc1cc(F)c(O[C@H]2CC[C@@](C)(C(=O)O)CC2)cc1C(=O)N[C@@H]1[C@H]2CC[C@H](C2)[C@@H]1C(=O)N[C@H](C)C(F)(F)F [Example 597] | 
122% | 5.13 | COc1cc(F)c(-c2cc(C(=O)O)ccn2)cc1C(=O)N[C@H]1[C@@H](C(=O)Nc2cccc(S(=O)(=O)C(F)(F)F)c2)[C@@H]2C=C[C@H]1C2 (racemic) [Example 277] | 
93% | 6.62 | COc1cc(F)c(OC2CCC(CO)(C(=O)O)CC2)cc1C(=O)N[C@H]1[C@H]2CC[C@H](C2)[C@H]1C(=O)Nc1cccc(S(=O)(=O)C(F)(F)F)c1 (relative stereo) [Example 585, (1R,4s)-4-(2-Fluoro-4-methoxy-5-(((1S*,2S*,3R*,4R*)-3-((3-((trifluoromethyl)sulfonyl)phenyl)carbamoyl)bicyclo[2.2.1]heptan-2-yl)carbamoyl)phenoxy)-1-(hydroxymethyl)cyclohexane-1-carboxylic acid] | 
101% | 7.48 | COc1cc(F)c(-c2ccc(OCCCC(=O)O)cc2)cc1C(=O)N[C@@H]1[C@H]2CC[C@H](C2)[C@@H]1C(=O)Nc1cccc(S(=O)(=O)C(F)(F)F)c1 [Example 251, 4-((2′-Fluoro-4′-methoxy-5′-(((1S,2R,3S,4R)-3-((3-((trifluoromethyl)sulfonyl)phenyl)carbamoyl)bicyclo[2.2.1]heptan-2-yl)carbamoyl)-[1,1′-biphenyl]-4-yl)oxy)butanoic acid] | 
125% |  | COc1cc(F)c(O[C@H]2CC[C@H](S(N)(=O)=O)CC2)cc1C(=O)N[C@@H]1[C@@H]2CC[C@@H](C2)[C@@H]1C(=O)Nc1cccc(S(=O)(=O)C(F)(F)F)c1 [Example 462, (1S,2S,3R,4R)-3-(4-fluoro-2-methoxy-5-(((1r,4R)-4-sulfamoylcyclohexyl)oxy)benzamido)-N-(3-((trifluoromethyl)sulfonyl)phenyl)bicyclo[2.2.1]heptane-2-carboxamide] | 
95% | 6.74 | COc1c(F)cc(O[C@H]2CC[C@@](C)(C(=O)O)CC2)cc1C(=O)N[C@@H]1[C@H]2CC[C@H](C2)[C@@H]1C(=O)NC12CC(F)(C1)C2 [Example 390] | 
125% | 7.11 | COc1cc(C#N)c(O[C@H]2CC[C@@](C)(C(=O)O)CC2)cc1C(=O)Nc1cc(Cl)ccc1C(=O)NC[C@H]1C[C@@H](C)C1 [Example 159] | 
95% | 7.59 | COc1cc(F)c(-c2ccc([C@@H]3C[C@H]3C(=O)O)nc2)cc1C(=O)N[C@@H]1[C@H]2CC[C@H](C2)[C@@H]1C(=O)Nc1cccc(S(=O)(=O)C(F)(F)F)c1 (single isomer, unassigned) [Example 262, (1R*,2R*)-2-(5-(2-Fluoro-4-methoxy-5-(((1S,2R,3S,4R)-3-((3-((trifluoromethyl)sulfonyl)phenyl)carbamoyl)bicyclo[2.2.1]heptan-2-yl)carbamoyl)phenyl)pyridin-2-yl)cyclopropane-1-carboxylic acid] | 
90% | 6.38 | COc1cc(F)c(O[C@H]2CC[C@@](C)(C(=O)O)CC2)cc1C(=O)N[C@@H]1[C@H]2CC[C@H](C2)[C@@H]1C(=O)N[C@H]1CCN(S(=O)(=O)C(F)(F)F)C1 [Example 606] | 
102% | 6.38 | COc1cc(F)c(-c2ccc(C(=O)O)cc2F)cc1C(=O)N[C@H]1[C@@H](C(=O)Nc2cccc(S(=O)(=O)C(F)(F)F)c2)[C@@H]2C=C[C@H]1C2 (racemic) [Example 227] | 
 | < 4.40 | COc1cc(F)c(O[C@H]2CC[C@@](C)(C(=O)O)CC2)cc1C(=O)NC1CCC1C(=O)NCC(C)(C)C (single isomer, unassigned) [Example 568, (1R,4s)-4-(2-Fluoro-4-methoxy-5-(((1S*,2R*)-2-(neopentylcarbamoyl)cyclobutyl)carbamoyl)phenoxy)-1-methylcyclohexane-1-carboxylic acid] | 
 | < 4.40 | COc1cc(F)c(-c2ccc(C(=O)O)cc2)cc1C(=O)N[C@H]1[C@@H](C(=O)Nc2cc(F)cc(C#N)c2)[C@@H]2C=C[C@H]1C2 (racemic) [Example 310] | 
103% |  | COc1cc(F)c(O[C@H]2CC[C@@](CO)(C(=O)O)CC2)cc1C(=O)N[C@H]1[C@@H](C(=O)NCC2(C)CCC2)[C@H]2CC[C@@H]1O2 (racemic) [Example 332] | 
108% | 6.89 | CCOc1cc(F)c(O[C@H]2CC[C@@](C)(C(=O)O)CC2)cc1C(=O)N[C@@H]1[C@H]2CC[C@H](C2)[C@@H]1C(=O)NC12CC(F)(C1)C2 [Example 384] | 
80% | 5.29 | COc1ccc(Oc2cccc(C(=O)O)c2)cc1C(=O)N[C@H]1[C@@H](C(=O)Nc2cccc(S(=O)(=O)C(F)(F)F)c2)[C@@H]2C=C[C@H]1C2 (racemic) [Example 428] | 
84% | 6.46 | COc1cc(F)c(OC2CCC(O)(C(=O)O)CC2)cc1C(=O)N[C@@H]1[C@@H]2CC[C@@H](C2)[C@@H]1C(=O)Nc1cccc(S(=O)(=O)C(F)(F)F)c1 (relative stereo) [Example 583, (1R,4r)-4-(2-Fluoro-4-methoxy-5-(((1R*,2R*,3S*,4S*)-3-((3-((trifluoromethyl)sulfonyl)phenyl)carbamoyl)bicyclo[2.2.1]heptan-2-yl)carbamoyl)phenoxy)-1-hydroxycyclohexane-1-carboxylic acid] | 

Compound | Test A Sinf (RXFP1 Hu cAMP) | pEC50 [1] | pEC50 (Test A EC50, RXFP1 Hu cAMP)
COCc1cc(OC)c(C(=O)N[C@@H]2[C@H]3CC[C@H](C3)[C@@H]2C(=O)NCC2(C)CCC2)cc1O[C@H]1CC[C@@](C)(C(=O)O)CC1 [Example 402] | 131% |  | 6.21
(1R,4s)-4-(2-Fluoro-4-methoxy-5-(((3S*,4R*)-4-(neopentylcarbamoyl)tetrahydrofuran-3-yl)carbamoyl)phenoxy)-1-methylcyclohexane-1-carboxylic acid [Example 567] | 86% |  | 
